In patent publication US9447042B2, “Endoparasite control agent” (THE UNIVERSITY OF TOKYO, priority 2011, dated 2016):
Read-outs that look alike come from different tables or passages of the source.

What was measured:
[1] = biological target: T1, Ascaris suum succinate-ubiquinone reductase (mitochondrial complex II) (Ascaris suum, UniProt O44074+P92506+P92507); assay: In vitro inhibitory activity on Ascaris suum succinate-ubiquinone reductase (mitochondrial complex II); assay type: biochemical; details: for Selectivity B/A: porcine IC50 (B) / Ascaris suum IC50 (A)
T1 construct: from tissue; host or cells: mitochondria from adult Ascaris suum muscle
T1 sequence (O44074 22-282): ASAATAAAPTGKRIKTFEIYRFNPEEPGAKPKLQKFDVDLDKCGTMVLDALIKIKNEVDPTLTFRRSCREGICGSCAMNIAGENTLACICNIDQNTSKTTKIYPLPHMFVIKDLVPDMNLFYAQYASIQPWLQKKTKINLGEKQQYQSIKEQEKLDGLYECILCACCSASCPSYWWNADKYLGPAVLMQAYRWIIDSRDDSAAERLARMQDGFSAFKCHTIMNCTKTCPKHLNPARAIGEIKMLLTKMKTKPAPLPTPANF
T1 sequence (P92506 32-188): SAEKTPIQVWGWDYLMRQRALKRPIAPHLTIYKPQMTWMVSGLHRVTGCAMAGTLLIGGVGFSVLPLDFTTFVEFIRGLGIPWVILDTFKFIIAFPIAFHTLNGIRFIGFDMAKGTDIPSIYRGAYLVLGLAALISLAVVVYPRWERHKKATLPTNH
T1 sequence (P92507 26-156): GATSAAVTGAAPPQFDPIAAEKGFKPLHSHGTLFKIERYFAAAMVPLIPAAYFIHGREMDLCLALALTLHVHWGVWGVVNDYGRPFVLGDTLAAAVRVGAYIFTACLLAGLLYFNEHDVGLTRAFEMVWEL
T1 sequence (Q33862 19-645 partner): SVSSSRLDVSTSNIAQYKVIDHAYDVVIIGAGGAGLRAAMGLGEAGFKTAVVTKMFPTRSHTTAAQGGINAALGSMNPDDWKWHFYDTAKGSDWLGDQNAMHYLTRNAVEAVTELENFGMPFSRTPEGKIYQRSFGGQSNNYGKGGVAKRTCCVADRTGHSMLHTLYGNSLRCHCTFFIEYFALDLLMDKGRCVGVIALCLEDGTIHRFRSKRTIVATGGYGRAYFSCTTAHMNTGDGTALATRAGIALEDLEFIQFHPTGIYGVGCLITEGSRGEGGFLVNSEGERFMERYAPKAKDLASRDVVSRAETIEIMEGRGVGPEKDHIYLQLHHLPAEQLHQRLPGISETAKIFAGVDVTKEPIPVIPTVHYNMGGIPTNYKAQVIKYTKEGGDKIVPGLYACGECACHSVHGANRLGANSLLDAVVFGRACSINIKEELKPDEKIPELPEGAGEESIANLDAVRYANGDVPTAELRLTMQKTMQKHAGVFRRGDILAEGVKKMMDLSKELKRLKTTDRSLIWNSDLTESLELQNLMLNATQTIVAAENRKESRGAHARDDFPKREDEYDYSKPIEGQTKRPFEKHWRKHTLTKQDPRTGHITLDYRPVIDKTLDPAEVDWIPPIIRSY
Procedure: In Vitro Measurement of Inhibitory Activity on Ascaris suum Succinate-Ubiquinone Reductase (Mitochondrial Complex II)
(§1) To a solution containing 50 mM potassium phosphate (pH 7.4) and 0.1% (w/v) sucrose monolaurate, an electron acceptor ubiquinone-2 (UQ2) was added at a final concentration of 60 μM, and the mixture was allowed to stand at 25° C. for 20 minutes. To this, potassium cyanide (final concentration: 2 mM) and mitochondria prepared from adult Ascaris suum muscle were added, and thorough mixing was done. To aliquots of the mixture, an inhibitor to be tested was added at various concentrations, and the mixtures were allowed to stand at 25° C. for 3 minutes. The enzymatic reaction was initiated by addition of potassium succinate (final concentration: 10 mM).
(§2) In the table, “-” indicates “not tested,” and “Ascaris suum IC50 value (A)” indicates an IC50 value (50% inhibitory concentration) for inhibition of succinate-ubiquinone reductase (mitochondrial complex II) of Ascaris suum. From the extent of inhibition of this respiratory enzyme, the parasite control activity can be estimated. “Porcine mitochondria IC50 value (B)” indicates an IC50 value for inhibition of succinate-ubiquinone reductase (mitochondrial complex II) of the host pig. From the extent of inhibition of this respiratory enzyme, the influence on the host can be estimated. A greater selectivity index B/A indicates a higher safety for the host.

Haemonchus contortus = assay: Larval migration inhibition assay (LMIA) on Haemonchus contortus; assay type: in vivo; details: third-stage larvae
Procedure: In Vivo Activity on Haemonchus contortus
The test was conducted according to the larval migration inhibition assay (LMIA: Demeler et al., 2010). A larval suspension was prepared so as to contain 100 to 120 third-stage larvae of Haemonchus contortus per 20 μL, and then 20 μL of the larval suspension was added to each well on a breeding plate to which compound solutions adjusted to predetermined concentrations were previously added at […] each. The breeding plate was maintained for breeding at 28° C. for 24 hours. Meanwhile, to a plate for larval migration observation, 400 μL of a 1.5% agar solution was added and left to stand until coagulation. Then, the larvae were allowed to migrate through a sieve from the breeding plate to the plate for larval migration observation, and the plates were maintained for breeding at 28° C. for another 24 hours. The larvae which had migrated, and the larvae which had not migrated were counted, the percentage of migration inhibition was calculated, and the activity was graded based on the following criterion. In the table, “-” indicates “not tested.”
Percentage of Migration Inhibition

[2] = biological target: T2, Porcine succinate-ubiquinone reductase (mitochondrial complex II) (Sus scrofa, UniProt A5GZW8+D0VWV4+Q007T0); assay: In vitro inhibitory activity on porcine succinate-ubiquinone reductase (mitochondrial complex II); assay type: biochemical, pig
T2 construct: from tissue; host or cells: mitochondria from porcine heart muscle
T2 sequence (Q007T0 29-280): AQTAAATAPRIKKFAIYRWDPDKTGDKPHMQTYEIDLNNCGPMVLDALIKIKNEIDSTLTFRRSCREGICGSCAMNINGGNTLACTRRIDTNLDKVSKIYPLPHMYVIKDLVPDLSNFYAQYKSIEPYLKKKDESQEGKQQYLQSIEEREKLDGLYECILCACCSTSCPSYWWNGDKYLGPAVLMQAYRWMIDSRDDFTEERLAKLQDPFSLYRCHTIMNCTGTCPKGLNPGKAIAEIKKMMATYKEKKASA
T2 sequence (D0VWV4 30-169): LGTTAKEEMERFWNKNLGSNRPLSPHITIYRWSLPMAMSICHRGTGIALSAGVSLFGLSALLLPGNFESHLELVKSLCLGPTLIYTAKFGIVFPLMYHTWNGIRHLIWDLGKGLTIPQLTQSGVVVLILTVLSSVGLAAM
T2 sequence (A5GZW8 57-159 limits assumed): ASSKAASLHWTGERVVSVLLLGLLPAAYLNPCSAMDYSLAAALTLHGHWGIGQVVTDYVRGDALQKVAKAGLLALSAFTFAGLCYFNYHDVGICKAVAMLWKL
T2 sequence (Q0QF01 43-664 partner): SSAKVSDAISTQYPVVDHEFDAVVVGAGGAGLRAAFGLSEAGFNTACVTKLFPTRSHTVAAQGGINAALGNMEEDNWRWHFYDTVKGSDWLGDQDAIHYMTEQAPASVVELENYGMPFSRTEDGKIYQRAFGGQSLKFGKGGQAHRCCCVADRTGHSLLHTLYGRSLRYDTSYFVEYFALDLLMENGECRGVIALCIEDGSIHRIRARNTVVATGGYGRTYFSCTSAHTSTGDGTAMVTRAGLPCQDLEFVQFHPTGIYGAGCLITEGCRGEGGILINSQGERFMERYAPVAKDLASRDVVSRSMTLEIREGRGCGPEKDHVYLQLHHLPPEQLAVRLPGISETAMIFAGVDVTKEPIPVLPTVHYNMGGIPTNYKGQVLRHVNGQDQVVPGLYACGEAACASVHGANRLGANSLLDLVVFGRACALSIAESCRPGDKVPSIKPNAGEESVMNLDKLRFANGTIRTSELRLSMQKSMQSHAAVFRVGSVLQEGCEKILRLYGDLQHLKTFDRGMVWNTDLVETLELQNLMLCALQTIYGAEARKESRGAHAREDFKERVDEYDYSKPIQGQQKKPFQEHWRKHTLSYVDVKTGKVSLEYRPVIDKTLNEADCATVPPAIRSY
Procedure: In Vitro Measurement of Inhibitory Activity on Porcine Succinate-Ubiquinone Reductase (Mitochondrial Complex II)
as §1, with “porcine heart” for “adult Ascaris suum”
as §2

[3] = mitochondria from porcine heart muscle, read-out: Porcine mitochondria IC50 value (B)
[4] = mitochondria from adult Ascaris suum muscle, read-out: Ascaris suum IC50 value (A)
[5] = at 9 μM, porcine heart muscle mitochondria
[6] = at 90 μM, porcine heart muscle mitochondria

SMILES | IC50 [1] | IC50 [1, 4] | Selectivity B/A [1] | Porcine mitochondria inhibition at 90 μM [2, 6] | other results
O=C(NCCOc1ccc(Cl)cc1Cl)c1ccccc1C(F)(F)F [Compound 4-1] | 3.44 nM | – | – | – | Percentage of migration inhibition (grade) (Haemonchus contortus; 0.1 ppm): C (10 to 39%); Percentage of migration inhibition (grade) (Haemonchus contortus; 1 ppm): C (10 to 39%); Percentage of migration inhibition (grade) (Haemonchus contortus; 10 ppm): C (10 to 39%)
CC(COc1ccc(Cl)cc1Cl)NC(=O)c1ccccc1C(F)(F)F (stereo not drawn) [Compound 4-2] | 5.15 nM | – | – | – | –
CC(C)(C)c1ccc(CNC(=O)c2ccccc2C(F)(F)F)cc1 [Compound 2-1] | – | 5.47 nM | 20295 | – | IC50 [2, 3]: 111000 nM; Percentage of migration inhibition (grade) (Haemonchus contortus; 0.1 ppm): C (10 to 39%); Percentage of migration inhibition (grade) (Haemonchus contortus; 1 ppm): B (40 to 69%)
Cc1ccc(OCCNC(=O)c2ccccc2C(F)(F)F)c(C)c1 [Compound 4-3] | 1.98 nM | – | – | – | –
CC(Cc1ccc(Cl)cc1Cl)NC(=O)c1ccccc1C(F)(F)F (stereo not drawn) [Compound 1-32] | 2.15 nM | – | >4190 | – | Porcine mitochondria inhibition at 9 μM [2, 5]: no inhibition at 9 μM; Percentage of migration inhibition (grade) (Haemonchus contortus; 0.1 ppm): C (10 to 39%); Percentage of migration inhibition (grade) (Haemonchus contortus; 1 ppm): C (10 to 39%); Percentage of migration inhibition (grade) (Haemonchus contortus; 10 ppm): B (40 to 69%)
Cc1cc(CNC(=O)c2ccccc2C(F)(F)F)ccc1-c1ccc(OC(F)(F)F)cc1 [Compound 2-5] | – | 3.83 nM | >2350 | – | Porcine mitochondria inhibition at 9 μM [2, 5]: no inhibition at 9 μM
CC(Cc1ccc(Cl)c(Cl)c1)NC(=O)c1ccccc1C(F)(F)F (stereo not drawn) [Compound 1-81] | 4.8 nM | – | >18800 | – | inhibition at 90 µM [2, 6]: 10%
O=C(NCCCSc1ccc(Cl)cc1Cl)c1ccccc1C(F)(F)F [Compound 4-6] | – | 8.34 nM | >1079 | – | Porcine mitochondria inhibition at 9 μM [2, 5]: no inhibition at 9 μM
Cc1ccc(CCNC(=O)c2ccccc2C(F)(F)F)c(C)c1 [Compound 1-27] | 1.69 nM | – | >53300 | no inhibition at 90 μM | –
O=C(NCCc1ccc(Cl)cc1)c1ccccc1C(F)(F)F [Compound 1-3] | 1.21 nM | – | >27000 | no inhibition at 90 μM | –
O=C(NCCc1c(Cl)cc(C(F)(F)F)cc1Cl)c1ccccc1C(F)(F)F [Compound 1-110] | 4.07 nM | – | >2460 | – | Porcine mitochondria inhibition at 10 μM ([2]; at 10 μM, porcine heart muscle mitochondria): no inhibition at 10 μM
CC(CCc1ccc(Cl)cc1Cl)NC(=O)c1ccccc1C(F)(F)F (stereo not drawn) [Compound 4-8] | 2.61 nM | – | >3448 | – | inhibition at 9 µM [2, 5]: 5%
O=C(NCCCOc1ccc(Cl)cc1Cl)c1ccccc1C(F)(F)F [Compound 4-4] | – | 8.36 nM | >10770 | 16% at 90 μM | –
CC(C)(NC(=O)c1ccccc1C(F)(F)F)c1ccccc1 [Compound 2-3] | – | 127 nM | >709 | no inhibition at 90 μM | –
O=C(NCCc1ccccc1)c1ccccc1C(F)(F)F [Compound 1-111] | 13.1 nM | – | >6870 | no inhibition at 90 μM | –
CC(NC(=O)c1ccccc1C(F)(F)F)c1ccc(Cl)cc1 (stereo not drawn) [Compound 2-8] | – | 38.2 nM | >2360 | no inhibition at 90 μM | –
CC(C)(CNC(=O)c1ccccc1C(F)(F)F)c1ccc(Cl)cc1Cl [Compound 1-112] | 1.5 nM | – | >60000 | no inhibition at 90 μM | –
Cc1ccc(SCCCNC(=O)c2ccccc2C(F)(F)F)c(C)c1 [Compound 4-5] | – | 6.07 nM | >14830 | 11% at 90 μM | –
O=C(NCc1ccc(Cl)cc1Cl)c1ccccc1C(F)(F)F [Compound 2-6] | – | 28.3 nM | >3180 | 10% at 90 μM | Percentage of migration inhibition (grade) (Haemonchus contortus; 0.1 ppm): C (10 to 39%); Percentage of migration inhibition (grade) (Haemonchus contortus; 1 ppm): C (10 to 39%); Percentage of migration inhibition (grade) (Haemonchus contortus; 10 ppm): C (10 to 39%)
O=C(NCCc1ncc(C(F)(F)F)cc1Cl)c1ccccc1C(F)(F)F [Compound 3-7] | 1.6 nM | – | 56250 | – | IC50 [2]: 90000 nM; Percentage of migration inhibition (grade) (Haemonchus contortus; 0.1 ppm): C (10 to 39%); Percentage of migration inhibition (grade) (Haemonchus contortus; 1 ppm): C (10 to 39%); Percentage of migration inhibition (grade) (Haemonchus contortus; 10 ppm): C (10 to 39%); Percentage of migration inhibition (grade) (Haemonchus contortus; 100 ppm): B (40 to 69%)
CC(Cc1ccc(F)cc1F)NC(=O)c1ccccc1C(F)(F)F (stereo not drawn) [Compound 1-64] | 9 nM | – | >9150 | – | Porcine mitochondria inhibition at 9 μM [2, 5]: no inhibition at 9 μM
CC(NC(=O)c1ccccc1C(F)(F)F)c1ccc(Cl)cc1Cl (stereo not drawn) [Compound 2-7] | – | 14 nM | >6430 | no inhibition at 90 μM | –
O=C(NCCc1ccc(Cl)cc1Cl)c1ccccc1C(F)(F)F [Compound 1-16] | 3.34 nM | – | >74400 | no inhibition at 90 μM | Percentage of migration inhibition (grade) (Haemonchus contortus; 0.1 ppm): C (10 to 39%); Percentage of migration inhibition (grade) (Haemonchus contortus; 1 ppm): C (10 to 39%); Percentage of migration inhibition (grade) (Haemonchus contortus; 10 ppm): C (10 to 39%); Percentage of migration inhibition (grade) (Haemonchus contortus; 100 ppm): B (40 to 69%)
CC(C)(Cc1ccc(Cl)c(Cl)c1)NC(=O)c1ccccc1C(F)(F)F [Compound 1-88] | 12 nM | – | – | – | –
O=C(NCCCc1ccc(Cl)cc1Cl)c1ccccc1C(F)(F)F [Compound 4-7] | 1.78 nM | – | 57870 | – | IC50 [2, 3]: 103000 nM; Percentage of migration inhibition (grade) (Haemonchus contortus; 0.1 ppm): C (10 to 39%); Percentage of migration inhibition (grade) (Haemonchus contortus; 1 ppm): C (10 to 39%); Percentage of migration inhibition (grade) (Haemonchus contortus; 10 ppm): C (10 to 39%); Percentage of migration inhibition (grade) (Haemonchus contortus; 100 ppm): B (40 to 69%)
O=C(NC(c1ccc(Cl)cc1)C1CC1)c1ccccc1C(F)(F)F (stereo not drawn) [Compound 2-4] | – | 70.5 nM | >1280 | no inhibition at 90 μM | –
